Reference: patent US20260109707A1, “HETEROBIFUNCTIONAL COMPOUNDS AND METHODS OF TREATING DISEASE” (Halda Therapeutics OpCo. Inc., priority 2022, published 2026)
Read-outs that look alike come from different tables or passages of the source.

Assays:
[1] = test system: T-Rex 293 cell line SC3 cells having increased expression of androgen receptor protein due to exposure to doxycycline; assay: Cellular growth inhibition assay, T-Rex 293 SC3 cells with doxycycline (CellTiter-Glo, 72 hours); type: cell-based; settings: T-Rex 293 SC3 cells with increased androgen receptor expression due to doxycycline (10 ng/mL)
How it was run: (§1)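 Growth inhibition is measured in an inducible AR-expressing T-Rex 293 clone, SC3, cultured with or without 10 ng/mL doxycycline in hormone-depleted medium. Test compounds are applied for 72 hours. GI50 values derive from CellTiter-Glo 2.0 signal fitted by four-parameter regression.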

[2] = test system: T-Rex 293 cell line SC3 cells lacking increased expression of androgen receptor protein; assay: Cellular growth inhibition assay, T-Rex 293 SC3 cells without doxycycline (CellTiter-Glo, 72 hours); type: cell-based; settings: T-Rex 293 cell line SC3 cells not exposed to doxycycline (lacking increased androgen receptor expression)
How it was run: as §1

VCaP cells = assay: Cellular growth inhibition assay for VCaP cells (CellTiter-Glo, 72 hours); type: cell-based, human
How it was run: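 Luminescent viability signal after 72 h of compound exposure gave GI50 values by four-parameter nonlinear regression. Compounds were added in 0.5% DMSO to cells plated 24 h earlier at 5000/well in DMEM containing 10% FBS.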

| SMILES | GI50 (VCaP cells) [nM] | GI50 (VCaP cells; Homo sapiens, VCaP, 72 h) [nM] | GI50 [1] [nM] | GI50 [2] [nM] | GI50 ([1]; 72 h) [nM] | GI50 ([2]; 72 h) [nM] |
| --- | --- | --- | --- | --- | --- | --- |
| Cc1sc2c(c1C)C(c1ccc(CCC3CC4(CCCN(c5ccc(C(=O)N[C@H]6CC[C@H](Oc7ccc(C#N)c(Cl)c7)CC6)nn5)C4)C3)cn1)N[C@@H](Cc1ncco1)c1nnc(C)n1-2 (stereo partly drawn) [I-643] | – | < 500 | – | – | < 500 | > 3000 |
| CCNC(=O)C[C@@H]1N=C(c2ccc(OCCCOC3CCN(c4ccc(C(=O)N[C@H]5CC[C@H](Oc6ccc(C#N)c(Cl)c6)CC5)nn4)CC3)cc2)c2c(sc(C)c2C)-n2c(C)nnc21 [I-14] | – | < 500 | – | – | < 500 | < 500 |
| Cc1sc2c(c1C)C(c1ccc(NCCCN3CCN(c4ncc(C(=O)N[C@H]5CC[C@H](Oc6ccc(C#N)c(Cl)c6)CC5)cn4)CC3)cc1)=NC(Cc1ncco1)c1nnc(C)n1-2 (stereo partly drawn) [I-793] | – | < 500 | – | – | < 500 | < 500 |
| Cc1sc2c(c1C)C(c1ccc(N3CCN(C4CCN(c5ncc(C(=O)N[C@H]6CC[C@H](Oc7ccc(C#N)c(Cl)c7)CC6)cn5)CC4)CC3)cc1)=NC(Cc1ncco1)c1nnc(C)n1-2 (stereo partly drawn) [I-798] | – | < 500 | – | – | < 500 | < 500 |
| Cc1sc2c(c1C)C(c1ccc(N3CCOC4(CCN(c5ncc(C(=O)N[C@H]6CC[C@H](Oc7ccc(C#N)c(Cl)c7)CC6)cn5)CC4)C3)cc1)=NC(Cc1ncco1)c1nnc(C)n1-2 (stereo partly drawn) [I-794] | – | < 500 | – | – | < 500 | > 3000 |
| Cc1sc2c(c1C)C(c1ccc(NCCC3CCCN(c4ncc(C(=O)N[C@H]5CC[C@H](Oc6ccc(C#N)c(Cl)c6)CC5)cn4)C3)cc1)=NC(Cc1ncco1)c1nnc(C)n1-2 (stereo partly drawn) [I-800] | – | < 500 | – | – | < 500 | < 500 |
| Cc1sc2c(c1C)C(c1ccc(OCC3CC4(CCCN(c5ccc(C(=O)N[C@H]6CC[C@H](Oc7ccc(C#N)c(Cl)c7)CC6)nn5)C4)C3)nc1)=NC1(CC1)c1nnc(C)n1-2 (stereo partly drawn) [I-486] | – | < 500 | – | – | < 500 | > 3000 |

The next lines start with results.

| GI50 (VCaP cells) [nM] | GI50 (VCaP cells; Homo sapiens, VCaP, 72 h) [nM] | SMILES | GI50 [1] [nM] | GI50 [2] [nM] | GI50 ([1]; 72 h) [nM] | GI50 ([2]; 72 h) [nM] |
| --- | --- | --- | --- | --- | --- | --- |
| 500 to 1500 | – | COCC[C@@H]1N=C(c2ccc(C3CCC4(CCCN(c5ccc(C(=O)N[C@H]6CC[C@H](Oc7ccc(C#N)c(Cl)c7)CC6)nn5)C4)CC3)cc2)c2c(sc(C)c2C)-n2c(C)nnc21 (stereo partly drawn) [I-657] | < 500 | > 3000 | – | – |
| > 3000 | – | Cc1sc2c(c1C)C(c1ccc(COC3CCC4(CCCN(c5ccc(C(=O)N[C@H]6CC[C@H](Oc7ccc(C#N)c(Cl)c7)CC6)nn5)C4)C3)cc1)=NC1(CC1)c1nnc(C)n1-2 (stereo partly drawn) [I-493] | – | 500 to 1500 | < 500 | – |
| < 500 | – | Cc1sc2c(c1C)C(c1cccc(OC3CCC4(CC3)CCN(c3ccc(C(=O)N[C@H]5CC[C@H](Oc6ccc(C#N)c(Cl)c6)CC5)nn3)C4)c1)=N[C@@H](C)c1nnc(C)n1-2 (stereo partly drawn) [I-747] | – | < 500 | < 500 | – |
| < 500 | – | Cc1sc2c(c1C)C(c1ccc(C#CC3CC4(CCCN(c5ccc(C(=O)N[C@H]6CC[C@H](Oc7ccc(C#N)c(Cl)c7)CC6)nn5)C4)C3)cn1)=NC(C)c1nnc(C)n1-2 (stereo partly drawn) [I-455] | < 500 | > 3000 | – | – |
| < 500 | – | Cc1sc2c(c1C)C(c1ccc(C3CCC4(CCN(c5ccc(C(=O)N[C@H]6CC[C@H](Oc7ccc(C#N)c(Cl)c7)CC6)nn5)CC4)C3)cc1)=N[C@@H](C)c1nnc(C)n1-2 (stereo partly drawn) [I-496] | – | – | < 500 | > 3000 |
| < 500 | – | Cc1sc2c(c1C)C(c1ccc(OC3CCC4(CCN(c5ccc(C(=O)N[C@H]6CC[C@H](Oc7ccc(C#N)c(Cl)c7)CC6)nn5)C4)C3)cc1)=N[C@@H](C)c1nnc(C)n1-2 (stereo partly drawn) [I-702] | < 500 | 500 to 1500 | – | – |
| – | < 500 | Cc1sc2c(c1C)C(c1ccc(CCC3CCN(c4ccc(C(=O)NC5CCC(Oc6ccc(C#N)c(Cl)c6)CC5)nn4)CC3)cc1)=NC(C)c1nnc(C)n1-2 (stereo not drawn) [I-593] | – | – | < 500 | < 500 |
| > 3000 | – | Cc1sc2c(c1C)C(c1ccc(OC3CCC4(CCCN(c5ccc(C(=O)N[C@H]6CC[C@H](Oc7ccc(C#N)c(Cl)c7)CC6)nn5)C4)C3)cc1)=NC1(CC1)c1nnc(C)n1-2 (stereo partly drawn) [I-524] | < 500 | > 3000 | – | – |
